Assay results taken from patent publication US4906661A, “Esters of aryloxypropanolamine derivatives” (E. I. Du Pont de Nemours and Company, priority 1989, dated 1990).
“And” between values parts separate entries of the source, which are not always exact repeats. Identical values can stand only once. Counter-ions that a name gives are not always drawn. Like-named read-outs stand apart in the source and are kept apart here. Each block holds one compound with its values, some of them ahead of it.

What was measured:
[1] = target: β1 receptors, guinea pig right atria (Cavia porcellus, UniProt H0W3H1); experiment: cell-based
Chain of β1 receptors, guinea pig right atria (H0W3H1 1-470): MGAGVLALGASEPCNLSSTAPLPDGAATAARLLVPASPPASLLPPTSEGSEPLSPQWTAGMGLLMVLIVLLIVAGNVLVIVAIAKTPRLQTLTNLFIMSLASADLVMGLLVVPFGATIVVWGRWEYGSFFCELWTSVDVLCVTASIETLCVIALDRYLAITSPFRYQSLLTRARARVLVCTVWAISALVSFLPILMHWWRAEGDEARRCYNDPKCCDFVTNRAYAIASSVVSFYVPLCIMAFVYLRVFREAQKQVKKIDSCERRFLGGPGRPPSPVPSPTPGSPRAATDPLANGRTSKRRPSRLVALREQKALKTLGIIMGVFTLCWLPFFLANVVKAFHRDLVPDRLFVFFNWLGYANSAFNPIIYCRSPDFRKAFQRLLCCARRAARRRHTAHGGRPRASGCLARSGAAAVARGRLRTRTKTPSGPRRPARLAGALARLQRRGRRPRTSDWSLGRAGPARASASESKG
Protocol: Each tissue was suspended between a fixed glass rod and a Statham Universal Transducer connected to a Beckman recorder. Atria were allowed to beat spontaneously under a loading tension of approximately 0.5 gm. Intrinsic depressant or stimulant activity was determined for each compound by progressively increasing concentrations in the tissue baths at 60-minute intervals. Tissues were not washed between increments. The maximum concentration showing little or no cardiodepressant activity was chosen for blockade experiments. Changes in rate in response to isoproterenol, a standard β-receptor agonist, were measured in the absence and presence of test compounds. Spiral strips of guinea pig trachea were suspended under 5 gm resting tension and incubated with phentolamine, tropolone and cocaine. Active tension was generated by addition of carbachol (3.0×10^-7 M) and decreases in tension in response to isoproterenol were quantitated. Cumulative concentration-response curves were produced with isoproterenol both before and after 60-minute incubation of test compounds with atria and trachea. […] The blocking potency of test compounds was estimated by computing pA2 values (-log KB) by the method of Furchgott, the Pharmacological Differentiation of Adrenergic Receptors, Ann. […] The degree of cardioselectivity was estimated from the ratio, KB trachea/KB atria (10^(pA2 atria-pA2 trachea)). A ratio greater than one indicates cardioselectivity. Test drugs were dissolved in distilled water and added to the bath (30 ml) in a volume of 10 or 100 μl.

[2] = target: β2 receptors, guinea pig trachea (Cavia porcellus, UniProt Q8K4Z4); experiment: cell-based
Chain of β2 receptors, guinea pig trachea (Q8K4Z4 whole entry): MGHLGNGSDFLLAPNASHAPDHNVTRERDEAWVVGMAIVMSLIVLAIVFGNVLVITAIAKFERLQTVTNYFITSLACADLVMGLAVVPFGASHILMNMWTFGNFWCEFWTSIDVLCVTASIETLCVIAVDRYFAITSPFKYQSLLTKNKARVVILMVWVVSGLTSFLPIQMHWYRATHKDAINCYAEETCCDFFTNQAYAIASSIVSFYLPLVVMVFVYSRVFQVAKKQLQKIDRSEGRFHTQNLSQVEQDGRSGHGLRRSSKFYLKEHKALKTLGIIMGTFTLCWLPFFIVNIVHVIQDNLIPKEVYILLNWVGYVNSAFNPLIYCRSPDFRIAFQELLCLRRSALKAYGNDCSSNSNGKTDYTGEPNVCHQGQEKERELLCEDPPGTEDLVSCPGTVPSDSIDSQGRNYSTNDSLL
Protocol: Each tissue was suspended between a fixed glass rod and a Statham Universal Transducer connected to a Beckman recorder. Atria were allowed to beat spontaneously under a loading tension of approximately 0.5 gm. Intrinsic depressant or stimulant activity was determined for each compound by progressively increasing concentrations in the tissue baths at 60-minute intervals. Tissues were not washed between increments. […] Changes in rate in response to isoproterenol, a standard β-receptor agonist, were measured in the absence and presence of test compounds. Spiral strips of guinea pig trachea were suspended under 5 gm resting tension and incubated with phentolamine, tropolone and cocaine. Active tension was generated by addition of carbachol (3.0×10^-7 M) and decreases in tension in response to isoproterenol were quantitated. Cumulative concentration-response curves were produced with isoproterenol both before and after 60-minute incubation of test compounds with atria and trachea. […] The blocking potency of test compounds was estimated by computing pA2 values (-log KB) by the method of Furchgott, the Pharmacological Differentiation of Adrenergic Receptors, Ann. […] A ratio greater than one indicates cardioselectivity. Test drugs were dissolved in distilled water and added to the bath (30 ml) in a volume of 10 or 100 μl.

[3] = system: heart rate response to isoproterenol; experiment: Duration and potency of beta-blocking action in vivo, 3-hour infusion in anesthetized dogs, isoproterenol challenge; design: species or system dog; details: for Recovery Time 50%: 50% recovery from β-blockade after termination of infusion; for Recovery Time 80%: 80% recovery from β-blockade after termination of infusion; for % I, percent inhibition of heart rate response to isoproterenol: end of 3-hour infusion, isoproterenol 0.5 μg/kg; for Duration, time for 50% recovery from 50% blockade levels: Table IV, after infusion of drug, mean ± SEM
Protocol: The duration of β-blockade was determined In vivo using pentobarbital-anesthetized dogs instrumented for measurement of heart rate using a Beckman cardiotachometer triggered electronically by a phasic aortic blood pressure signal. Both vagus nerves were served in the cervical region and the animals were mechanically ventilated. The experimental design used employed a 3-hour infusion of test compound. Bolus doses of isoproterenol (0.5 μg/kg) were used to assess the degree of β-blockade and recovery from β-blockade after […] of the infusion. The doses were spaced at 10-minute intervals and were given before, during and following the infusion of test compounds. The infusion rate was adjusted so that at the end of the 3-hour infusion period the degree of isoproterenol inhibition averaged about 50% of control. Following termination of blocker infusion, percent recovery from β-blockade was computed and the time associated with 80% recovery estimated.
^c Time in minutes for 50% recovery from 50% blockade levels after 3
Infusions of drug. Number of experiments is equal to or greater than thre
for each compound unless noted otherwise. Tabulated data are mean values
^c The betablocking activities were evaluated Invivo in a canine
model. The betablocker was infused in the animal for 3 hours with the dos
adjusted to give approximately 50%. blockage of the Isoproternolinduced
tachycardia. The infusion was then terminated and the time required for
80% recovery of blockade was recorded as duration of action of the
compound. The amount of drug infused during the 3 hours was averaged and
expressed as potency in ug/kg/min.

[4] = Half-life in dog whole blood (procedure D); assay type: in vitro ADME; details: 37° C., read-out: T1/2 dog blood
Protocol: (§1) In each experiment, 1 ml of a solution containing 50 μg of the test compound was added to 1 ml of whole blood or 1 ml of a 33% (w/v) liver homogenate. The samples were incubated in a Dubnoff shaking metabolic incubator for 2.5, 5.0, 10.0, 20.0, 30.0 and 60.0 minutes at 37° C. At the designated time periods, the test mixtures were removed from the incubator and transferred to a 0° C. ice bath. Acetonitrile (2 ml) was immediately added and the mixtures were mixed to stop enzymatic hydrolysis. Zero time samples were prepared by adding 2 ml of acetonitrile to denature the proteins prior to addition of the test compounds. After centrifugation to sediment denatured proteins, 2 ml of the supernatant was removed and analyzed by high pressure liquid chromatography, using a mobile phase of 60% acetonitrile/40% 0.05 M sodium phosphate buffer (pH 6.6), a U.V. detector and Waters μ Bondapak Phenyl column.
(§2) The half life of each test compound was determined graphically by plotting the decrease in concentrations as a function of time.

[5] = system: β-adrenergic receptors, guinea pig trachea vs right atria; experiment: Cardioselectivity, KB trachea/KB atria; assay type: cell-based; details: 10^(pA2 atria-pA2 trachea); ratio greater than one indicates cardioselectivity
Protocol: Each tissue was suspended between a fixed glass rod and a Statham Universal Transducer connected to a Beckman recorder. Atria were allowed to beat spontaneously under a loading tension of approximately 0.5 gm. Intrinsic depressant or stimulant activity was determined for each compound by progressively increasing concentrations in the tissue baths at 60-minute intervals. Tissues were not washed between increments. The maximum concentration showing little or no cardiodepressant activity was chosen for blockade experiments. Changes in rate in response to isoproterenol, a standard β-receptor agonist, were measured in the absence and presence of test compounds. Spiral strips of guinea pig trachea were suspended under 5 gm resting tension and incubated with phentolamine, tropolone and cocaine. Active tension was generated by addition of carbachol (3.0×10^-7 M) and decreases in tension in response to isoproterenol were quantitated. Cumulative concentration-response curves were produced with isoproterenol both before and after 60-minute incubation of test compounds with atria and trachea. […] The degree of cardioselectivity was estimated from the ratio, KB trachea/KB atria (10^(pA2 atria-pA2 trachea)). A ratio greater than one indicates cardioselectivity. Test drugs were dissolved in distilled water and added to the bath (30 ml) in a volume of 10 or 100 μl.

[6] = Half-life in dog liver homogenate (procedure D); assay type: in vitro ADME; details: 37° C., read-out: T1/2 dog liver homogenate
Protocol: as §1, §2

[7] = topical (eye), Physicians' Desk Reference 1981; cited from earlier work
[8] = Table IV, mean, n ≥ 2, range ≤ ± 0.2 units, read-out: pA2 Atria (converted)
[9] = Table IV, mean, n ≥ 2, range ≤ ± 0.2 units, read-out: pA2 Trachea (converted)
[10] = Table VI, read-out: pA2 Atria (converted)
[11] = Table I, guinea pig trachea, vs isoproterenol, -log KB, read-out: PA2 Trachea (converted)
[12] = Table IV, mean, n ≥ 2, range ≤ ± 0.2 units
[13] = Table I, guinea pig right atria, vs isoproterenol, -log KB, read-out: PA2 Rt. Atria (converted)

Kb [1, 8]: 501 nM
Kb [2, 9]: 251 nM
Compound: CCOC(=O)CCc1ccc(OCC(O)CNC(C)(C)CNS(=O)(=O)c2ccccc2)cc1 (centres unmarked) [No. 18 (Table IV)]

Kb [1, 10]: 794 nM
Compound: CCOC(=O)CCc1nsnc1OCC(O)CNCCNS(=O)(=O)N1CCOCC1 (centres unmarked) [No. 7 (Table VI)]

Kb [1, 8]: 5.01 nM
Kb [2, 9]: 10 nM
Compound: CCOC(=O)NCC(C)(C)NCC(O)COc1ccccc1C(=O)OCC (centres unmarked) [Example 2]

Compound: COC(=O)c1ccccc1OCC(O)CNC(C)(C)CNS(=O)(=O)c1ccccc1 (centres unmarked) [VIII, Methyl 2-[2-Hydroxy-3-[N-[1,1-dimethyl-2-(phenylsulfonylamino)ethyl]amino]proxy]benzoate Oxalate]
Kb [2, 11]: 1.58 nM
Recovery Time 50% ([3]; Table II): 26 ± 6 min
Recovery Time 80% ([3]; Table II): > 60 min
% I, percent inhibition of heart rate response to isoproterenol ([3]; Table II): 74%

Kb [1, 10]: 39.8 nM
Compound: CCOC(=O)CCc1nsnc1OCC(O)CNC(C)(C)CNC(N)=O (centres unmarked) [No. 2 (Table VI)]

pA2 Atria [1, 12]: 5.8
Kb [1, 8]: 1580 nM
pA2 Trachea [2, 12]: 6.5
Kb [2, 9]: 316 nM
Compound: CCOC(=O)CCc1ccc(OCC(O)CNC(C)(C)CNS(=O)(=O)N(C)C)cc1 (centres unmarked) [No. 15 (Table IV)]

Compound: CC(C)(C)NC[C@H](O)COc1nsnc1N1CCOCC1 [Timolol, reference compound]
Duration, time for 50% recovery from 50% blockade levels [3]: > 60 min

Kb [1, 8]: 501 nM
Kb [2, 9]: 316 nM
Compound: CCOC(=O)CCc1ccc(OCC(O)CNCCNC(C)=O)cc1 (centres unmarked) [No. 9 (Table IV)]
Duration, time for 50% recovery from 50% blockade levels [3]: 10 ± 4 min

Kb [1, 10]: 501 nM
Compound: CCOC(=O)CCc1nsnc1OCC(O)CNCCNC(C)=O (centres unmarked) [No. 3 (Table VI)]

Compound: COC(=O)c1ccccc1OCC(O)CNCCNC(=O)Nc1ccccc1 (centres unmarked) [Example IV, Methyl 2-[2-Hydroxy-3-[N-[2-[N-(phenylaminocarbonyl)amino]ethyl]amino]propoxy]benzoate]
half-life [4]: > 3 h
Kb [1, 13]: 7.94 nM
Cardioselectivity KB (Trachea)/KB (Atria) [5]: 25
Kb [2, 11]: 200 nM
Recovery Time 50% ([3]; Table II): > 60 min
Recovery Time 80% ([3]; Table II): > 60 min
% I, percent inhibition of heart rate response to isoproterenol ([3]; Table II): 72 ± 3%
half-life [6]: > 3 h

Kb [1, 8]: 15.8 nM
Kb [2, 9]: 200 nM
Compound: CCOC(=O)CCc1ccc(OCC(O)CNC(C)(C)CNC(=O)N2CCOCC2)cc1 (centres unmarked) [No. 19 (Table IV)]
Duration, time for 50% recovery from 50% blockade levels [3]: 21 ± 4 min

Kb [1, 10]: 79.4 nM
Compound: CCOC(=O)CCc1nsnc1OCC(O)CNC(C)(C)CNC(C)=O (centres unmarked) [No. 5 (Table VI)]

Compound: CC(C)NCC(O)COc1cccc2ccccc12 (centres unmarked) [Propranolol, reference compound]
Potency ([3]; Table II, 3-hour infusion, dog): 0.225 mg/kg/180 min
Recovery Time 50% ([3]; Table II): > 60 min
Recovery Time 80% ([3]; Table II): > 60 min
% I, percent inhibition of heart rate response to isoproterenol ([3]; Table II): 67 ± 6%
Duration, time for 50% recovery from 50% blockade levels [3]: > 60 min

Compound: COC(=O)c1ccccc1OCC(O)CNC(C)(C)CNC(=O)N1CCOCC1 (centres unmarked) [Example VI, Methyl 2-[2-Hydroxy-3-[N-[1,1-dimethyl-2-(1-morpholinocarbonylamino)ethyl]amino]propoxy]benzoate Oxalate]
Kb [1, 13]: < 1 nM
Recovery Time 50% ([3]; Table II): > 60 min
Recovery Time 80% ([3]; Table II): > 60 min
% I, percent inhibition of heart rate response to isoproterenol ([3]; Table II): 93% and 89%

Compound: CC(C)(C)NC[C@H](O)COc1nsnc1N1CCOCC1 [timolol maleate]
adverse reactions to the topical use [7]: bronchospasm and heart failure, as well as cardiac conduction defects

Kb [1, 8]: 1000 nM
Kb [2, 9]: 398 nM
Compound: CCOC(=O)CCc1ccc(OCC(O)CNC(C)(C)CNC(N)=O)cc1 (centres unmarked) [No. 13 (Table IV)]
Duration, time for 50% recovery from 50% blockade levels [3]: 12 ± 4 min
